Measurements taken from PMC11470957, “Principles of paralog-specific targeted protein degradation engaging the C-degron E3 KLHDC2” (Nature Communications, 2024).
Where “and” joins values, the source holds several entries; their conditions need not be identical. Equal entries are not always repeated. Where two headings read alike, the source gives them in different places.

Tests used:
BRD4 = BRD4 (Homo sapiens, UniProt O60885); test: Western blot of BRD4 levels after cellular dosing
KLHDC2 = biological target: T1, KLHDC2 (Homo sapiens, UniProt Q9Y2U9); test: Western blot of KLHDC2 levels after cellular dosing
T1 sequence (Q9Y2U9 1-406): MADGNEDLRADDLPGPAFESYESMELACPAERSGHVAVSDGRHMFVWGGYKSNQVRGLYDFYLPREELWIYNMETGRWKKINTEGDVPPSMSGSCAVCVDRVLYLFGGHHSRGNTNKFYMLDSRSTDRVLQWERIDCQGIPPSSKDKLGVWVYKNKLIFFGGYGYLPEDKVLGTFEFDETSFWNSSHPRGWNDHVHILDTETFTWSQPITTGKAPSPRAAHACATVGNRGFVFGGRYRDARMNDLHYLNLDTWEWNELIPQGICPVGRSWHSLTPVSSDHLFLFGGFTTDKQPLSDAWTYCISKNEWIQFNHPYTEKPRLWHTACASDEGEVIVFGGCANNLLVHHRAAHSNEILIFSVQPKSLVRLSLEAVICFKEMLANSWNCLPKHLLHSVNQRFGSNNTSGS

SMILES: COC(=O)CNC(=O)Cc1csc(-c2ccc3cccc(OCCN4CCN(C(=O)C[C@@H]5N=C(c6ccc(Cl)cc6)c6c(sc(C)c6C)-n6c(C)nnc65)CC4)c3c2)n1 [SJ46420]
- BRD4 level relative to DMSO (100%) (BRD4; U2OS KO/Rescue, concentration not printed (line after 5µM), 24 h, Fig S6d): 0.51 +/- 0.21%
- BRD4 level relative to DMSO (100%) (BRD4; U2OS, 5µM, 4hr, Fig S6h): 96 +/- 7.2%
- BRD4 level relative to DMSO (100%) (BRD4; U2OS, 5µM, 8hr, Fig S6i): 176 +/- 28%
- BRD4 level relative to DMSO (100%) (BRD4; U2OS, 5µM, 8hr, Fig S6h): 69 +/- 4.4%
- BRD4 level relative to DMSO (100%) (BRD4; U2OS, 5µM, 24 h, Fig 6b): 74 +/- 4.1%
- BRD4 level relative to DMSO (100%) (BRD4; U2OS, 5µM, 24hr, Fig S6h): 60 +/- 5.6%
- Dmax (BRD4; U2OS, read-out: BRD4 Dmax, U2OS KO/Rescue, 24 h dose): 99.4%
- Dmax (BRD4; read-out: BRD4 Dmax, PC3, 24 h dose): 59.5%
- KLHDC2 level relative to DMSO (100%) (KLHDC2; 22Rv1, 0.16µM, 24 h, Fig S6f): 167 +/- 17%
- KLHDC2 level relative to DMSO (100%) (KLHDC2; 22Rv1, 0.31µM, 24 h, Fig S6f): 171 +/- 10%
- KLHDC2 level relative to DMSO (100%) (KLHDC2; 22Rv1, 0.63µM, 24 h, Fig S6f): 179 +/- 13%
- KLHDC2 level relative to DMSO (100%) (KLHDC2; 22Rv1, 1.3µM, 24 h, Fig S6f): 199 +/- 27%
- KLHDC2 level relative to DMSO (100%) (KLHDC2; 22Rv1, 2.5µM, 24 h, Fig S6f): 170 +/- 35%
- KLHDC2 level relative to DMSO (100%) (KLHDC2; 22Rv1, 5µM, 24 h, Fig S6f): 238 +/- 26%
- KLHDC2 level relative to DMSO (100%) (KLHDC2; 22Rv1, 10µM, 24 h, Fig S6f): 356 +/- 37%
- KLHDC2 level relative to DMSO (100%) (KLHDC2; 293T, 2.5µM, 24 h, Fig S6a): 130 +/- 3.8%
- KLHDC2 level relative to DMSO (100%) (KLHDC2; 293T, 5µM, 24 h, Fig S6a): 132 +/- 4.4%
- KLHDC2 level relative to DMSO (100%) (KLHDC2; AU565, 0.2µM, 8 h, Fig S6c): 96 +/- 4.5%
- KLHDC2 level relative to DMSO (100%) (KLHDC2; AU565, 1µM, 8 h, Fig S6c): 102 +/- 8.6%
- KLHDC2 level relative to DMSO (100%) (KLHDC2; AU565, 5µM, 8 h, Fig S6c): 104 +/- 6.7%
- KLHDC2 level, Western blot quantification (KLHDC2; Fig 6b, KO/Rescue, 5 uM, DMSO printed 0): 0
- KLHDC2 level, Western blot quantification (DMSO = 100) (KLHDC2; Fig 6b, U2OS, 5 uM): 114.478 and 116.145
- KLHDC2 level, Western blot quantification (DMSO = 100) (KLHDC2; Fig 6c, 1 uM): 373.51 and 441.349
- KLHDC2 level, Western blot quantification (DMSO = 100) (KLHDC2; Fig 6d, 1 uM): 1598.67 and 1321.11
- KLHDC2 level, Western blot quantification (DMSO = 100) (KLHDC2; Fig 6d, 1uM together with 1uM MLN4924): 4337 and 4000.23
- KLHDC2 level, Western blot quantification (DMSO = 100) (KLHDC2; Fig S6a, 293T cells, 2.5 uM): 127.565 and 133
- KLHDC2 level, Western blot quantification (DMSO = 100) (KLHDC2; Fig S6a, 293T cells, 5 uM): 128.652 and 135
- KLHDC2 level, Western blot quantification (DMSO = 100) (KLHDC2; Fig S6b, MDA-MB468 Cells, 2 uM): 157.366 and 160
- KLHDC2 level, Western blot quantification (DMSO = 100) (KLHDC2; Fig S6b, MDA-MB468 Cells, 5 uM): 170.896 and 175
- KLHDC2 level, Western blot quantification (DMSO = 100) (KLHDC2; Fig S6b, MDA-MB468 Cells, 10 uM): 190.223 and 200
- KLHDC2 level, Western blot quantification (DMSO = 100) (KLHDC2; Fig S6c, AU565 Cells, 0.2 uM): 94.0454 and 99.4615
- KLHDC2 level, Western blot quantification (DMSO = 100) (KLHDC2; Fig S6c, AU565 Cells, 1 uM): 108.13 and 96.9184
- KLHDC2 level, Western blot quantification (DMSO = 100) (KLHDC2; Fig S6c, AU565 Cells, 5 uM): 108.427 and 99.9384
- KLHDC2 level, Western blot quantification (DMSO = 100) (KLHDC2; Fig S6f, 22RV1 KO/rescue Dose Response, 0.156 uM): 180 and 155
- KLHDC2 level, Western blot quantification (DMSO = 100) (KLHDC2; Fig S6f, 22RV1 KO/rescue Dose Response, 0.313 uM): 178 and 164
- KLHDC2 level, Western blot quantification (DMSO = 100) (KLHDC2; Fig S6f, 22RV1 KO/rescue Dose Response, 0.625 uM): 188 and 170
- KLHDC2 level, Western blot quantification (DMSO = 100) (KLHDC2; Fig S6f, 22RV1 KO/rescue Dose Response, 1.25 uM): 219 and 180
- KLHDC2 level, Western blot quantification (DMSO = 100) (KLHDC2; Fig S6f, 22RV1 KO/rescue Dose Response, 2.5 uM): 149 and 192
- KLHDC2 level, Western blot quantification (DMSO = 100) (KLHDC2; Fig S6f, 22RV1 KO/rescue Dose Response, 5 uM): 256 and 220
- KLHDC2 level, Western blot quantification (DMSO = 100) (KLHDC2; Fig S6f, 22RV1 KO/rescue Dose Response, 10uM): 382 and 330
- KLHDC2 level, Western blot quantification (DMSO = 100) (KLHDC2; Fig S6g, SKBR3 Time course, 1 uM, 2hr): 96.2473 and 100.234
- KLHDC2 level, Western blot quantification (DMSO = 100) (KLHDC2; Fig S6g, SKBR3 Time course, 1 uM, 4hr): 98.547 and 105.246
- KLHDC2 level, Western blot quantification (DMSO = 100) (KLHDC2; Fig S6g, SKBR3 Time course, 1 uM, 8hr): 108.754 and 118.735
- KLHDC2 level, Western blot quantification (DMSO = 100) (KLHDC2; Fig S6g, SKBR3 Time course, 5 uM, 2hr): 110.116 and 102.856
